Data as given in US12233073B2, “Skin care formulations and skin cancer treatment” (Regents of the University of Minnesota, priority 2017, dated 2025).
Where two headings read alike, the source gives them in different places.

What was measured:
[1] = system: SSL-induced skin tumors in SKH-1 hairless mice
Method: The effectiveness of different candidate compounds in preventing sUV-induced cancer was evaluated. SKH-1 hairless mice (Charles River, Burlington, Massachusetts) were treated with formulations including one or more candidate compounds and exposed to SSL (solar simulated light). Female mice aged 5-6 weeks at the beginning of the study were used. The mice were exposed to SSL three times a week for 15 weeks from the beginning of the study. At week 1, the SSL dose included 37 kJ/m^2 UVA and 1.8 kJ/m^2 UVB three times per week. […] At week 6, the dose included 60 kJ/m^2 UVA and 2.9 kJ/m^2 UVB and this dose was maintained until week 15 at which time SSL exposure was stopped. Each mouse received a topical application (on the dorsal skin surface posterior to the base of the neck and anterior to the base of the tail) of one or more candidate compounds in a base cream one hour before SSL exposure. 15 weeks onwards, the mice were no longer exposed to SSL but the topical application of cream with sunscreen compounds was continued until 30 weeks. Control mice received topical application of cream with sunscreen compounds but no SSL.
Tumors were counted by sight. The dimensions of each tumor were measured using a digital caliper. Tumor volume (mm^3) was determined as (length×width^2)×0.52, where the length and width were measured in mm. […] Average or total tumor volumes were compared between vehicle (cream)-treated mice exposed to SSL and compound in cream-treated mice exposed to SSL.

[2] = system: skin of SKH-1 hairless mice; test: H&E staining of skin of mice treated with anti-sUV agents; type: in vivo, mouse; conditions: solar UV-exposed groups G13-G24
Description: FIG. 40 is a photograph comparing H&E (hematoxylin and eosin) stained tissue sample of mice exposed to solar ultraviolet and treated with anti-sUV agents and mice unexposed to solar ultraviolet. H&E staining can show skin damage (see TABLE 5 for group identification). […] None of the compounds in the absence of solar UV caused any damage and none had any adverse effect on skin thickness. G11 and G12 are the positive controls, being groups treated with solar UV without or with vehicle (cream).

Ki-67 = Ki-67 immunohistological staining of skin of mice treated with anti-sUV agents; type: in vivo, mouse; conditions: solar UV-exposed groups
Description: FIG. 41 is a photograph comparing Ki-67 immunohistological-stained tissue samples of mice exposed to solar ultraviolet and treated with anti-sUV agents and mice unexposed to solar ultraviolet.

[3] = following one hour of exposure to sunlight; cited from earlier work
[4] = SSL-exposed, compound in cream, percent per TABLE 5
[5] = SSL-exposed, compound in cream, percent per TABLE 5, 15 mice
[6] = female, SKH-1 hairless, mouse, in vivo, 30 weeks
[7] = no SSL exposure, compound in cream, percent per TABLE 5

Row | SMILES | % Effective Protection (% reduction in tumor volume vs SSL with cream only) [1, 4] [%] | % Mice with tumor [1, 5] [%] | % Mortality [1, 5] | Average volume of tumors [1, 5] [mm^3] | Avg. no. of tumors [1, 5] | Number of dead mice [1, 5] | Total no. of tumors [1, 5] | Total volume of tumors [1, 5] [mm^3] | % Mice with tumor [1, 6] [%] | % Mortality/Number of dead mice [1, 7] | Total/Average volume of tumors [1, 7] | Total/Avg. no. of tumors [1, 7] | H&E staining: epidermal thickening and skin damage [2] | Ki-67 staining: abnormal cell proliferation (Ki-67) | change in UV absorbance [3] | % Mice with tumor ([1]; no SSL exposure, compound in cream, percent per TABLE 5, 30 weeks) [%]
1 | COc1ccc(C(=O)CC(=O)c2ccc(C(C)(C)C)cc2)cc1 [Avobenzone] | 72.8 | 93.3 | 6.7% | 46.1 | 3.7 | 1 | 55 | 691.5 | 0 | 0 | 0 | 0 | epidermal thickening and skin damage | extensive abnormal proliferation | approximately 36% | 
2 | [O]=[Zn] [Zinc oxide] |  | 6.7 | 0/0% | 0.8 | 0.13 | 0/0 | 2 | 11.2 |  | 0 | 0 | 0 | most protected | least amount of abnormal proliferation |  | 0
3 | CC1CC(OC(=O)c2ccccc2O)CC(C)(C)C1 (stereo not shown) [Homosalate] | 83.6 | 80 | 6.7% | 27.7 | 2.6 | 1 | 39 | 415.7 | 0 | 0 | 0 | 0 | intense damage | extensive abnormal proliferation |  | 
4 | CCCCC(CC)COC(=O)c1ccccc1O (stereo not shown) [Octisalate] | 70.1 | 100 | 66.7% | 50.6 | 2.6 | 10 | 39 | 758.4 | 0 | 0 | 0 | 0 | epidermal thickening and skin damage |  |  | 
